The supplement of paper PMC10307832

Assays:
Assay in all cases: relative viability (nuclei count vs DMSO), 5 days (fraction); higher = more cells survive
[1] = compound: COC1=C(C=C(C=C1)C2=CC3=NC=CN3C(=N2)NC4=C(C=CC=N4)C(=O)N)OC [BAY61-3606] + COc1cccc2cc(-c3nc([C@H]4CC[C@H](C(=O)O)CC4)n4ncnc(N)c34)[nH]c12 [OSI-027] (partner 0.5 µM)
In short: (§1)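 Relative viability equals treated-well nuclei counts divided by vehicle-well nuclei counts. Counts came from 4× images of lung cancer cell lines grown in 1536-well plates for 5 days after pin-tool dosing on the day after seeding. Dosing used one drug alone or a fixed anchor-drug dose plus five library-drug doses (not always all listed) in √10 steps, and values are medians of duplicate plates.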

[2] = compound: COC1=C(C=C(C=C1)C2=CC3=NC=CN3C(=N2)NC4=C(C=CC=N4)C(=O)N)OC [BAY61-3606] + C[C@@H](Oc1cc(-c2cnn(C3CCNCC3)c2)cnc1N)c1c(Cl)ccc(F)c1Cl [Crizotinib] (partner 1 µM)
In short: as §1

[3] = compound: COC1=C(C=C(C=C1)C2=CC3=NC=CN3C(=N2)NC4=C(C=CC=N4)C(=O)N)OC [BAY61-3606] + Nc1ncn([C@H]2C[C@H](O)[C@@H](CO)O2)c(=O)n1 [Decitabine] (partner 2 µM)
In short: as §1

[4] = compound: COc1cccc2c1C(=O)c1c(O)c3c(c(O)c1C2=O)C[C@@](O)(C(=O)CO)C[C@@H]3O[C@H]1C[C@H](N)[C@H](O)[C@H](C)O1 [Doxorubicin] + COc1cccc2cc(-c3nc([C@H]4CC[C@H](C(=O)O)CC4)n4ncnc(N)c34)[nH]c12 [OSI-027] (partner 0.5 µM)
In short: as §1

| Cell Line | relative viability ([1]; first compound 0.02 µM) | relative viability ([1]; first compound 0.06325 µM) | relative viability ([1]; first compound 0.2 µM) | relative viability ([1]; first compound 0.6325 µM) | relative viability ([1]; first compound 2 µM) | relative viability ([2]; first compound 0.02 µM) | relative viability ([2]; first compound 0.06325 µM) | relative viability ([2]; first compound 0.2 µM) | relative viability ([2]; first compound 0.6325 µM) | relative viability ([2]; first compound 2 µM) | relative viability ([3]; first compound 0.02 µM) | relative viability ([3]; first compound 0.06325 µM) | relative viability ([3]; first compound 0.2 µM) | relative viability ([3]; first compound 0.6325 µM) | relative viability ([3]; first compound 2 µM) | relative viability ([4]; first compound 0.001 µM) | relative viability ([4]; first compound 0.003162 µM) | relative viability ([4]; first compound 0.01 µM) | relative viability ([4]; first compound 0.03162 µM) | relative viability ([4]; first compound 0.1 µM) |
| --- | --- | --- | --- | --- | --- | --- | --- | --- | --- | --- | --- | --- | --- | --- | --- | --- | --- | --- | --- | --- |
| HARA | 0.554 | 0.463 | 0.513 | 0.536 | 0.311 | 1.08 | 1.08 | 1.06 | 1.07 | 0.892 | 0.515 | 0.512 | 0.67 | 0.688 | 0.585 | 0.454 | 0.543 | 0.569 | 0.509 | 0.473 |
| SW 1573 | 0.613 | 0.552 | 0.51 | 0.63 | 0.325 | 0.802 | 0.65 | 0.745 | 0.785 | 0.588 | 0.526 | 0.553 | 0.467 | 0.511 | 0.325 | 0.527 | 0.513 | 0.316 | 0.125 | 0.103 |
| NCI-H1792 | 0.756 | 0.716 | 0.712 | 0.644 | 0.528 | 0.944 | 1.03 | 0.777 | 0.947 | 1.08 | 0.605 | 0.572 | 0.547 | 0.617 | 0.493 | – | 0.674 | 0.713 | 0.709 | 0.625 |
| HCC-827 | 0.698 | 0.845 | 0.817 | 0.803 | 0.787 | 0.938 | 0.952 | 0.942 | 0.974 | 0.965 | 0.327 | 0.321 | 0.352 | 0.317 | 0.308 | 0.725 | 0.714 | 0.796 | 0.671 | 0.754 |
| LC-2-ad | 0.853 | 0.772 | 0.8 | 0.997 | 0.654 | – | 0.384 | 0.447 | 0.406 | 0.348 | 0.849 | 0.772 | 0.775 | 0.778 | 0.92 | 0.629 | 0.691 | 0.587 | 0.386 | 0.292 |
| NCI-H520 | 0.247 | 0.364 | 0.364 | 0.296 | 0.212 | 0.881 | 0.782 | 0.871 | 0.948 | 0.593 | 0.508 | 0.67 | 0.515 | 0.518 | 0.557 | 0.249 | 0.274 | 0.233 | 0.193 | 0.202 |
| NCI-H460 | 0.781 | 0.672 | 0.657 | 0.467 | 0.214 | 0.952 | 0.72 | 0.913 | 0.846 | 0.182 | 0.508 | 0.572 | 0.43 | 0.448 | 0.382 | 0.614 | 0.41 | 0.482 | 0.0685 | 0.0255 |
| SK-LU-1 | 0.357 | 0.366 | 0.317 | 0.285 | 0.227 | 1.08 | 0.853 | 0.904 | 0.889 | 0.398 | 0.715 | 0.725 | 0.575 | 0.621 | 0.428 | 0.359 | 0.297 | 0.28 | 0.224 | 0.173 |
